From patent US10676468B2, “N-(3-heteroarylaryl)-4-arylarylcarboxamides and analogs as hedgehog pathway inhibitors and use thereof” (IMPACT Therapeutics, Inc., priority 2012, dated 2020) come the findings set out here.

Counter-ions that a name gives are not always drawn. Like-named read-outs stand apart in the source and are kept apart here.

For the assay, the system named is Hedgehog Signaling Pathway. Kind of assay: Gli-Luc reporter gene cell assay in C3H10T1/2/Gli-Luc cells stimulated with Shh. It counts as cell-based, mouse. The conditions noted are these: 30 nM Shh, luciferase activity (RLU), read-out: IC50 values of compounds that inhibit Hh pathway. An excerpt: The Application of Reporter Gene Cell Assay for the Determination of the Inhibitory Activity of N-(3-(1H-benzo[d]imidazol-2-yl)-4-chlorophenyl)-2-methyl-4-((2S,6R)-2,6-dimethylmorpholino) benzamide and Analogs on Hedgehog Signaling Pathway
The binding of Sonic hedgehog (Shh) to its receptor Patched 1 initiates numerous intracellular signal transmission, and leads to the nuclear translocation of Gli and the elevated transcription of Gli target genes. When C3H10T1/2 cells are stably transfected with the Gli-Luc plasmids containing the luciferase gene under the control of Gli response element and stimulated with Shh, the expression of luciferase is elevated. Luciferase activity is indicative of the hedgehog signaling pathway activity. Therefore, the inhibitory activity of compounds on hedgehog signaling pathway can be measured using the luciferase activity when the transfected cells are stimulated with Shh.
The day before experiment, C3H10T1/2/Gli-Luc cells in log phase of growth were seeded into 96 well plate at a density of 20000 cells per well. The cells were maintained in DMEM (Hyclone) supplemented with 10% FBS (Hyclone) and incubated at 37° C. with 5% CO2 overnight. The compounds to be examined were diluted into 7 different concentrations by series of dilutions (⅓ and 1/10), and the eighth point of concentration is the DMSO control. Those solutions were diluted 100-fold in the fresh growth medium. The cells were taken out of the incubator and the medium of cultured cells were removed. Then, each well was added in an orderly manner with 80 μL of fresh growth medium, 20 μL of medium pre-dilution of positive compound and compounds to be tested, as well as 100 μL of growth medium containing 30 nM of Shh. The cells are returned to the incubator, and incubated for 24 hours.
Measurement of luciferase activity: After taking the 96 well plate out of the incubator, the supernatants were discarded and the cells were washed twice with PBS. Thereafter, each well was dispensed with 20 μL of lysis buffer (Promega E1531), and the plate was shaken for 30 min at room temperature. Following transferring 5 μL of cell lysate into 384 well plate (Greiner 781074), adding 25 μL of luciferase reaction buffer (Promega E1501) into each well and mixing the plate, the relative light unit (RLU) was immediately captured by VarioSkan Flash.
The data were analyzed with Prism 5 software (GraphPad). The relative light unit (RLU) was plotted against the log concentration of testing compound, and the obtained plot was fitted with non-linear curve fitting equation to calculate IC50 values. The curve fitting equation is Y (RLU)=Bottom+(Top−Bottom)/(1+10^((X−Log IC50))). X is the logarithm of concentration. Y is the measure of relative light unit (RLU).
The calculated IC50 value is a measurement of the inhibitory activity of compound to Hh pathway.
In general terms: In a reporter assay the amount or activity of a reporter protein is the signal.

Consider `C[C@@H]1CN(c2cc(Cl)c(C(=O)Nc3ccc(Cl)c(-c4ncc(-c5ccsc5)[nH]4)c3)cc2F)C[C@H](C)N1C` [Example 142, N-(3-(5-(thiophen-3-yl)-1H-imidazol-2-yl)-4-chlorophenyl)-2-chloro-5-fluoro-4-((3S,5R)-3,4,5-trimethylpiperazin-1-yl)benzamide], for which the IC50 (in general, the midpoint of a concentration-inhibition curve) (Mus musculus, C3H 10T1/2, 24 h) turned out to be 0.28 nM.
The same measure, in the same setting: the same measure for `CCN1[C@H](C)CN(c2ccc(C(=O)Nc3ccc(Cl)c(-c4ncc(-c5ccco5)[nH]4)c3)c(Cl)c2)C[C@@H]1C` [Example 150, N-(3-(5-(furan-2-yl)-1H-imidazol-2-yl)-4-chlorophenyl)-2-chloro-4-((3S,5R)-4-ethyl-3,5-dimethylpiperazin-1-yl)benzamide]: 0.5 nM.
As to `Cc1ccc(-c2cnc(-c3cc(NC(=O)c4ccc(N5C[C@@H](C)N(C)[C@@H](C)C5)cc4Cl)ccc3Cl)[nH]2)o1` [Example 151, N-(3-(5-(5-methylfuran-2-yl)-1H-imidazol-2-yl)-4-chlorophenyl)-2-chloro-4-((3S,5R)-3,4,5-trimethylpiperazin-1-yl)benzamide], for the setting “Mus musculus, C3H 10T1/2, 24 h”, the IC50 was 2 nM.
As for `Cc1ccc(-c2cnc(-c3cc(NC(=O)c4ccc(N5C[C@@H](C)N(C)[C@@H](C)C5)cc4C)ccc3Cl)[nH]2)o1` [Example 152, N-(3-(5-(5-methylfuran-2-yl)-1H-imidazol-2-yl)-4-chlorophenyl)-2-methyl-4-((3S,5R)-3,4,5-trimethylpiperazin-1-yl)benzamide], under “Mus musculus, C3H 10T1/2, 24 h”, the IC50 worked out at 1.2 nM.
Regarding `Cc1cc(N2C[C@@H](C)N(C)[C@@H](C)C2)ccc1C(=O)Nc1ccc(Cl)c(-c2ncc(-c3cccn3C)[nH]2)c1` [Example 161, N-(3-(5-(1-methyl-1H-pyrrol-2-yl)-1H-imidazol-2-yl)-4-chlorophenyl)-2-methyl-4-((3S,5R)-3,4,5-trimethylpiperazin-1-yl)benzamide], where the note is “Mus musculus, C3H 10T1/2, 24 h”, the IC50 came to 0.38 nM.
Same read-out and setting: the same measure for `C[C@@H]1CN(c2ccc(C(=O)Nc3ccc(Cl)c(-c4ncc(-c5cccn5C)[nH]4)c3)c(Cl)c2)C[C@H](C)N1C` [Example 162, N-(3-(5-(1-methyl-1H-pyrrol-2-yl)-1H-imidazol-2-yl)-4-chlorophenyl)-2-chloro-4-((3S,5R)-3,4,5-trimethylpiperazin-1-yl)benzamide]: 0.3 nM.
Take `C[C@@H]1CN(c2ccc(C(=O)Nc3ccc(Cl)c(-c4ncc(-c5ccsc5)[nH]4)c3)c(C(F)(F)F)c2)C[C@H](C)N1C` [Example 164, N-(3-(5-(thiophen-3-yl)-1H-imidazol-2-yl)-4-chlorophenyl)-2-(trifluoromethyl)-4-((3S,5R)-3,4,5-trimethylpiperazin-1-yl) benzamide Dihydrochloride]: the IC50 (24 hours) came out at 0.24 nM.
As to `CCN1[C@H](C)CN(c2ccc(C(=O)Nc3ccc(Cl)c(-c4ncc(-c5ccsc5)[nH]4)c3)c(Cl)c2)C[C@@H]1C` [Example 165, N-(3-(5-(thiophen-3-yl)-1H-imidazol-2-yl)-4-chlorophenyl)-2-chloro-4-((3S,5R)-4-ethyl-3,5-dimethylpiperazin-1-yl)benzamide Dihydrochloride], the IC50 (Mus musculus, C3H 10T1/2, 24 h) was 0.19 nM.
Turning to `CCc1cnc(-c2cc(NC(=O)c3ccc(N4C[C@@H](C)N(C)[C@@H](C)C4)cc3C(F)(F)F)ccc2Cl)[nH]1` [Example 167, N-(3-(5-ethyl-1H-imidazol-2-yl)-4-chlorophenyl)-2-(trifluoromethyl)-4-((3S,5R)-3,4,5-trimethylpiperazin-1-yl)benzamide], the IC50 (Mus musculus, C3H 10T1/2, 24 h) was found to be 28 nM.
The same measure, in the same setting: the same measure for `CCc1cnc(-c2cc(NC(=O)c3ccc(N4C[C@@H](C)N(C)[C@@H](C)C4)c(F)c3C)ccc2Cl)[nH]1` [Example 168, N-(3-(5-ethyl-1H-imidazol-2-yl)-4-chlorophenyl)-2-methyl-3-fluoro-4-((3S,5R)-3,4,5-trimethylpiperazin-1-yl)benzamide]: 0.38 nM.
On to `CCc1cnc(-c2cc(NC(=O)c3ccc(N4C[C@@H](C)N(CC)[C@@H](C)C4)cc3Cl)ccc2Cl)[nH]1` [Example 169, N-(3-(5-ethyl-1H-imidazol-2-yl)-4-chlorophenyl)-2-chloro-4-((3S,5R)-4-ethyl-3,5-dimethylpiperazin-1-yl)benzamide], for which, where the note is “Mus musculus, C3H 10T1/2, 24 h”, the concentration for half-maximal inhibition (IC50) was determined as 0.67 nM.
